Test results: ChEMBL document CHEMBL1201862, “PubChem BioAssay data set” (2004)
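Method: 48-hour compound exposure of cells in 96-well plates, five concentrations, linear interpolation of endpoints. GI50 marks 50% less growth.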 Calls of active or inactive are those of the source. No stated cut-off is given here; in the data, active = GI50 up to about 1.1 µM and inactive = higher.

Assays:
Test in all cases: NCI tumour cell line growth inhibition, 48 h
LXFL 529 = test system: LXFL 529
DMS-273 = test system: DMS-273
SNB-78 = test system: SNB-78
M19-MEL = test system: M19-MEL
DLD-1 = test system: DLD-1
HOP-18 = test system: HOP-18
KM-20L2 = test system: KM-20L2
XF498 = test system: XF498
RXF 631 = test system: RXF 631

Structure (SMILES) | GI50 (LXFL 529) | GI50 (DMS-273) | GI50 (SNB-78) | GI50 (M19-MEL) | GI50 (DLD-1) | GI50 (HOP-18) | GI50 (KM-20L2) | GI50 (XF498) | GI50 (RXF 631)
CCN(CC)C(=S)SC1CCOP(=O)(N(CCCl)CCCl)N1C (configuration not stated) | 0.0372 µM (active) | 0.214 µM (active) | 49.2 µM (inactive) | 0.212 µM (active) | 0.126 µM (active) | > 100 µM (inactive) | 38.7 µM (inactive) | – | –
Cc1cc(NC(=O)NC(=O)c2ccccc2NC(=O)C(C)N)ccc1Oc1ncc(Br)cn1 (configuration not stated) | 0.396 µM (active) | 0.046 µM (active) | 0.146 µM (active) | 0.292 µM (active) | 0.331 µM (active) | – | 0.0946 µM (active) | – | –
COc1ccc(-c2c(N)[n+]([O-])c3cc(C)c(C)cc3[n+]2[O-])cc1OC | 58.5 µM (inactive) | 99.3 µM (inactive) | > 100 µM (inactive) | 72.3 µM (inactive) | 85.7 µM (inactive) | 28.8 µM (inactive) | 54.3 µM (inactive) | > 100 µM (inactive) | 20.4 µM (inactive)
CNS(=O)(=O)NN(C)S(=O)(=O)c1ccccc1 | > 100 µM (inactive) | > 100 µM (inactive) | – | > 100 µM (inactive) | > 100 µM (inactive) | – | > 100 µM (inactive) | – | –
CN(CC(=O)O)S(=O)(=O)c1ccc2ccccc2c1 | > 100 µM (inactive) | > 100 µM (inactive) | – | > 100 µM (inactive) | > 100 µM (inactive) | > 100 µM (inactive) | > 100 µM (inactive) | > 100 µM (inactive) | > 100 µM (inactive)
CC(Oc1ccc2c(-c3ccc(Cl)cc3)cc(=O)oc2c1)C(=O)O (configuration not stated) | > 100 µM (inactive) | – | > 100 µM (inactive) | – | > 100 µM (inactive) | > 100 µM (inactive) | > 100 µM (inactive) | 2.35 µM (inactive) | > 100 µM (inactive)
COC(=O)C12CC(C3CC31)C1CC12 (configuration not stated) | > 100 µM (inactive) | > 100 µM (inactive) | – | > 100 µM (inactive) | > 100 µM (inactive) | > 100 µM (inactive) | > 100 µM (inactive) | – | > 100 µM (inactive)
C#C[C@]1(O)CCC2C3CCc4cc(Oc5nc(F)nc(-n6c(C)nc7cc8ccccc8cc76)n5)ccc4C3CCC21C (some centres not stated) | 41.1 µM (inactive) | 20.8 µM (inactive) | 75.3 µM (inactive) | 37.1 µM (inactive) | 53.3 µM (inactive) | 30.6 µM (inactive) | 32.4 µM (inactive) | 61 µM (inactive) | –
CC(C)(C)N/N=C(\C(=O)Nc1cccc(Cl)c1)C1C(=O)Nc2ccccc2[S+]1[O-] (configuration not stated) | > 100 µM (inactive) | > 100 µM (inactive) | – | > 100 µM (inactive) | > 100 µM (inactive) | > 100 µM (inactive) | > 100 µM (inactive) | > 100 µM (inactive) | > 100 µM (inactive)
Nc1ccc2c(SCc3ccc([N+](=O)[O-])cc3)c3ccccc3nc2c1 | 6.08 µM (inactive) | 19.9 µM (inactive) | 21.9 µM (inactive) | 13.2 µM (inactive) | 2.39 µM (inactive) | 13.5 µM (inactive) | 16.5 µM (inactive) | 14.6 µM (inactive) | –
O=c1/c(=C/c2ccccc2[N+](=O)[O-])sc2nnc(-c3cccnc3)n12 | > 100 µM (inactive) | > 100 µM (inactive) | > 100 µM (inactive) | > 100 µM (inactive) | > 100 µM (inactive) | > 100 µM (inactive) | > 100 µM (inactive) | > 100 µM (inactive) | > 100 µM (inactive)
C/C=C(\N=C=S)C(=O)OC1C(COC(C)=O)OC([C@]2(O)CC(=O)C(N)=C(C(=O)O)C2=O)C(O)C1OC1CC(OC)C(O)([C@@H](C)OC(=O)[C@@H](C)CC)C(C)O1 (some centres not stated) | 2.06 µM (inactive) | 16.3 µM (inactive) | 5.21 µM (inactive) | 2.6 µM (inactive) | 10.9 µM (inactive) | 16.8 µM (inactive) | 6.92 µM (inactive) | 2.49 µM (inactive) | –
CC1=Nn2c(nnc2-c2ccc(Cl)cc2)NC(C)(C)C1 | > 100 µM (inactive) | > 100 µM (inactive) | > 100 µM (inactive) | > 100 µM (inactive) | > 100 µM (inactive) | > 100 µM (inactive) | > 100 µM (inactive) | > 100 µM (inactive) | –
O=c1n(-c2ccccc2)c(=O)n2n1C1C=CC2C2C(C1)C2(Cl)Cl (configuration not stated) | > 100 µM (inactive) | > 100 µM (inactive) | > 100 µM (inactive) | > 100 µM (inactive) | > 100 µM (inactive) | – | > 100 µM (inactive) | > 100 µM (inactive) | > 100 µM (inactive)
COc1ccc2ccc3c(c2c1)CN1CCc2cc(OC)c(OC)cc2C1C3 (configuration not stated) | 66.2 µM (inactive) | > 100 µM (inactive) | > 100 µM (inactive) | – | > 100 µM (inactive) | > 100 µM (inactive) | > 100 µM (inactive) | 60.3 µM (inactive) | > 100 µM (inactive)
[O-][S+]1c2ccccc2N=C(c2ccc3ccccc3c2)CC1C1=CC=CCC1 (configuration not stated) | 14.8 µM (inactive) | 19.2 µM (inactive) | – | 17.1 µM (inactive) | 12.9 µM (inactive) | 35.8 µM (inactive) | 19.5 µM (inactive) | 17.1 µM (inactive) | 17.2 µM (inactive)

Structure (SMILES) | GI50 (LXFL 529) | GI50 (DMS-273) | GI50 (SNB-78) | GI50 (M19-MEL) | GI50 (DLD-1) | GI50 (HOP-18) | GI50 (KM-20L2) | GI50 (XF498) | GI50 (RXF 631)
CCN(CC)CCNc1ccc2ncn3c4cc(O)ccc4c(=O)c1c23 | 2.56 µM (inactive) | 2.77 µM (inactive) | 5.35 µM (inactive) | 3.94 µM (inactive) | 3.76 µM (inactive) | – | 3.7 µM (inactive) | 2.9 µM (inactive) | 2.1 µM (inactive)
C=C(C)CC(C)(c1cc2ccccc2n1C)N1CCOCC1 (configuration not stated) | 53.7 µM (inactive) | 61 µM (inactive) | – | > 100 µM (inactive) | 60.5 µM (inactive) | > 100 µM (inactive) | > 100 µM (inactive) | 50.6 µM (inactive) | 42.4 µM (inactive)
Cc1cc(C)c(-c2noc(-c3ccc(Cl)cc3)c2C2=NCCCN2)c(C)c1 | 32.2 µM (inactive) | – | 14.8 µM (inactive) | 36.1 µM (inactive) | 35.8 µM (inactive) | 27.9 µM (inactive) | 21.9 µM (inactive) | 12.2 µM (inactive) | 25.1 µM (inactive)
CC(C)(C)c1cc(C(O)(C(F)(F)F)C(F)(F)F)c2c(c1)C(C(F)(F)F)(C(F)(F)F)OC(C)(C(C)(C)C)N2 (configuration not stated) | 2.96 µM (inactive) | 3.06 µM (inactive) | 5.87 µM (inactive) | 3.05 µM (inactive) | 2.85 µM (inactive) | 2.76 µM (inactive) | 3.03 µM (inactive) | 1.63 µM (inactive) | –
c1cnc2c(c1)-n1cccc1C1(CCOCC1)NN2 | > 100 µM (inactive) | > 100 µM (inactive) | – | > 100 µM (inactive) | > 100 µM (inactive) | > 100 µM (inactive) | > 100 µM (inactive) | > 100 µM (inactive) | –
O=C1CCCCCCC2=C1C(Sc1ccccc1)CC2 (configuration not stated) | 35.4 µM (inactive) | 26.2 µM (inactive) | > 100 µM (inactive) | 50.2 µM (inactive) | – | > 100 µM (inactive) | 41.6 µM (inactive) | – | –
COC1/C=C\C=C(/C)C(=O)Nc2cc3nc4ccc(Br)cc4oc-3c(c2=O)CC(C)CC(OC)C(O)C(C)/C=C(\C)C1OC(N)=O (configuration not stated) | < 0.0147 µM (active) | < 0.0216 µM (active) | 0.998 µM (active) | 0.0383 µM (active) | 0.0447 µM (active) | 0.01 µM (active) | < 0.0181 µM (active) | < 0.0202 µM (active) | –
N#Cc1cccc(N2C(=O)C3C4C=CC(C3C2=O)C2C(=O)N(c3cccc(C#N)c3)C(=O)C42)c1 (configuration not stated) | > 46.5 µM (inactive) | 15.2 µM (inactive) | 12.7 µM (inactive) | – | > 46.5 µM (inactive) | > 65.2 µM (inactive) | > 100 µM (inactive) | 15.5 µM (inactive) | 24.7 µM (inactive)
Fc1ccc2c(c1)cc1ccc3cccc4ccc2c1c34 | > 100 µM (inactive) | > 100 µM (inactive) | > 100 µM (inactive) | > 100 µM (inactive) | > 100 µM (inactive) | > 100 µM (inactive) | > 100 µM (inactive) | > 100 µM (inactive) | > 100 µM (inactive)
CN1C(=O)CC2(C)c3cc(O)cc(Br)c3N(C)C12 (configuration not stated) | > 100 µM (inactive) | – | > 100 µM (inactive) | > 100 µM (inactive) | – | 31.6 µM (inactive) | > 100 µM (inactive) | > 100 µM (inactive) | –
CC(=O)Nc1ccccc1S(=O)(=O)c1ccccc1 | > 100 µM (inactive) | > 100 µM (inactive) | > 100 µM (inactive) | > 100 µM (inactive) | > 100 µM (inactive) | > 100 µM (inactive) | > 100 µM (inactive) | 79.6 µM (inactive) | > 100 µM (inactive)
CCCCCCCCCCCCC(Br)C(=O)SCCNC(=O)CCNC(=O)[C@@H](O)C(C)(C)COP(=O)(O)OP(=O)(O)OCC1OC(n2cnc3c(N)ncnc32)C(O)C1OP(=O)(O)O (some centres not stated) | > 56.5 µM (inactive) | > 56.5 µM (inactive) | > 56.5 µM (inactive) | > 56.5 µM (inactive) | > 56.5 µM (inactive) | > 56.5 µM (inactive) | > 56.5 µM (inactive) | > 56.5 µM (inactive) | –
CC12CO[C@@](C)(CC(S(=O)(=O)c3ccccc3)C1)O2 (some centres not stated) | > 100 µM (inactive) | > 100 µM (inactive) | > 100 µM (inactive) | > 100 µM (inactive) | > 100 µM (inactive) | > 100 µM (inactive) | > 100 µM (inactive) | – | –
C/C(=C\C(C[C@](C)(O)C(O)CCC#C[Si](C)(C)C)S(=O)(=O)c1ccccc1)CC/C=C/CO[Si](C)(C)C(C)(C)C (some centres not stated) | – | 15.7 µM (inactive) | 16.8 µM (inactive) | 17.2 µM (inactive) | 23.6 µM (inactive) | – | 8.61 µM (inactive) | 13.2 µM (inactive) | 9.66 µM (inactive)
COC(=O)[C@@]12OC[C@]34[C@H]([C@@H](O)[C@@H]1O)[C@@]1(C)CC(=O)C(O)=C(C)[C@@H]1C[C@H]3OC(=O)[C@H](OC(=O)/C=C(\C)C(C)C)[C@@H]24 [BRUCEANTIN] | 3.5e-05 µM (active) | – | 0.02 µM (active) | 0.02 µM (active) | 0.02 µM (active) | 0.0265 µM (active) | 0.02 µM (active) | 0.02 µM (active) | 0.000314 µM (active)
